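Cells were grown in 96-well plates and exposed to each compound for 48 hours at five concentrations; endpoints were interpolated linearly between bracketing concentrations, or set to the highest concentration if not reached. GI50: concentration for 50% inhibition of growth. Definition used: TGI = concentration required for complete inhibition of growth.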
Key:
Experiment in all cases: NCI-60 cell line screen, 48 h
SK-MEL-28 melanoma = test system: SK-MEL-28 melanoma
TK-10 renal = test system: TK-10 renal
MOLT-4 leukemia = test system: MOLT-4 leukemia
A549 NSCLC = test system: A549 NSCLC
K-562 leukemia = test system: K-562 leukemia
U251 CNS = test system: U251 CNS
M14 melanoma = test system: M14 melanoma
HL-60(TB) leukemia = test system: HL-60(TB) leukemia
OVCAR-4 ovarian = test system: OVCAR-4 ovarian
T-47D breast = test system: T-47D breast
MDA-MB-435 = test system: MDA-MB-435
UACC-62 melanoma = test system: UACC-62 melanoma
COLO 205 colon = test system: COLO 205 colon
CCRF-CEM leukemia = test system: CCRF-CEM leukemia
OVCAR-3 ovarian = test system: OVCAR-3 ovarian
PC-3 prostate = test system: PC-3 prostate
ACHN renal = test system: ACHN renal
NCI-H226 lung = test system: NCI-H226 lung
A498 renal = test system: A498 renal
SNB-75 CNS = test system: SNB-75 CNS
NCI-H460 lung = test system: NCI-H460 lung
HOP-92 NSCLC = test system: HOP-92 NSCLC
786-0 renal = test system: 786-0 renal
MALME-3M melanoma = test system: MALME-3M melanoma
SF-539 CNS = test system: SF-539 CNS
OVCAR-8 ovarian = test system: OVCAR-8 ovarian
NCI-H522 lung = test system: NCI-H522 lung
RXF 393 renal = test system: RXF 393 renal
SN12C renal = test system: SN12C renal
SW-620 colon = test system: SW-620 colon
UACC-257 melanoma = test system: UACC-257 melanoma
MCF7 breast = test system: MCF7 breast
HCT-116 colon = test system: HCT-116 colon
SF-295 CNS = test system: SF-295 CNS
IGROV1 ovarian = test system: IGROV1 ovarian
UO-31 renal = test system: UO-31 renal
SK-OV-3 ovarian = test system: SK-OV-3 ovarian
NCI-H23 lung = test system: NCI-H23 lung
HCC-2998 colon = test system: HCC-2998 colon
SF-268 CNS = test system: SF-268 CNS
LOX IMVI melanoma = test system: LOX IMVI melanoma
DU-145 prostate = test system: DU-145 prostate
SK-MEL-2 melanoma = test system: SK-MEL-2 melanoma
SNB-19 CNS = test system: SNB-19 CNS
SR leukemia = test system: SR leukemia
EKVX NSCLC = test system: EKVX NSCLC
RPMI-8226 leukemia = test system: RPMI-8226 leukemia
BT-549 breast = test system: BT-549 breast
OVCAR-5 ovarian = test system: OVCAR-5 ovarian
HOP-62 NSCLC = test system: HOP-62 NSCLC
HCT-15 colon = test system: HCT-15 colon
CAKI-1 renal = test system: CAKI-1 renal
MDA-MB-231 breast = test system: MDA-MB-231 breast
HT29 colon = test system: HT29 colon
KM12 colon = test system: KM12 colon
HS 578T breast = test system: HS 578T breast
SK-MEL-5 melanoma = test system: SK-MEL-5 melanoma
NCI/ADR-RES ovarian = test system: NCI/ADR-RES ovarian

SMILES: O=C1[C@H]2Cc3c([nH]c4ccccc34)[C@@H](c3ccc(Br)cc3)N2C(=O)CN1C1CCN(Cc2ccccc2)CC1
- GI50 (SK-MEL-28 melanoma): 4.41 µM
- TGI (SK-MEL-28 melanoma): 8.53 µM
- GI50 (TK-10 renal): 5.79 µM
- TGI (TK-10 renal): 12.7 µM
- GI50 (MOLT-4 leukemia): 1.5 µM
- TGI (MOLT-4 leukemia): > 25 µM
- GI50 (A549 NSCLC): 3.7 µM
- TGI (A549 NSCLC): 13.5 µM
- GI50 (K-562 leukemia): 1.06 µM
- TGI (K-562 leukemia): 9.94 µM
- GI50 (U251 CNS): 2.96 µM
- TGI (U251 CNS): 6.53 µM
- GI50 (M14 melanoma): 3.24 µM
- TGI (M14 melanoma): 8.35 µM
- GI50 (HL-60(TB) leukemia): 2.3 µM
- TGI (HL-60(TB) leukemia): 8.31 µM
- GI50 (OVCAR-4 ovarian): 4.24 µM
- TGI (OVCAR-4 ovarian): 13.1 µM
- GI50 (T-47D breast): 3.54 µM
- TGI (T-47D breast): 15.7 µM
- GI50 (MDA-MB-435): 3.5 µM
- TGI (MDA-MB-435): 7.02 µM
- GI50 (UACC-62 melanoma): 3.58 µM
- TGI (UACC-62 melanoma): 9.3 µM
- GI50 (COLO 205 colon): 2.62 µM
- TGI (COLO 205 colon): 6.04 µM
- GI50 (CCRF-CEM leukemia): 3.3 µM
- TGI (CCRF-CEM leukemia): > 25 µM
- GI50 (OVCAR-3 ovarian): 3.27 µM
- TGI (OVCAR-3 ovarian): 7.23 µM
- GI50 (PC-3 prostate): 1.67 µM
- TGI (PC-3 prostate): 7.3 µM
- GI50 (ACHN renal): 3.76 µM
- TGI (ACHN renal): 9.65 µM
- GI50 (NCI-H226 lung): 5.04 µM
- TGI (NCI-H226 lung): > 25 µM
- GI50 (A498 renal): 4.28 µM
- TGI (A498 renal): 8.04 µM
- GI50 (SNB-75 CNS): 0.745 µM
- TGI (SNB-75 CNS): 18.3 µM
- GI50 (NCI-H460 lung): 3.87 µM
- TGI (NCI-H460 lung): 7.82 µM
- GI50 (HOP-92 NSCLC): 2.65 µM
- TGI (HOP-92 NSCLC): 6.57 µM
- GI50 (786-0 renal): 3.46 µM
- TGI (786-0 renal): 7 µM
- GI50 (MALME-3M melanoma): 3.69 µM
- TGI (MALME-3M melanoma): 7.81 µM
- GI50 (SF-539 CNS): 3.61 µM
- TGI (SF-539 CNS): 7.03 µM
- GI50 (OVCAR-8 ovarian): 3.99 µM
- TGI (OVCAR-8 ovarian): 9.01 µM
- GI50 (NCI-H522 lung): 4.6 µM
- TGI (NCI-H522 lung): 10.3 µM
- GI50 (RXF 393 renal): 2.91 µM
- TGI (RXF 393 renal): 6.41 µM
- GI50 (SN12C renal): 3.17 µM
- TGI (SN12C renal): 6.72 µM
- GI50 (SW-620 colon): 3.32 µM
- TGI (SW-620 colon): 7.15 µM
- GI50 (UACC-257 melanoma): 4.64 µM
- TGI (UACC-257 melanoma): 10.2 µM
- GI50 (MCF7 breast): 1.14 µM
- TGI (MCF7 breast): 4.75 µM
- GI50 (HCT-116 colon): 2.54 µM
- TGI (HCT-116 colon): 5.72 µM
- GI50 (SF-295 CNS): 4.56 µM
- TGI (SF-295 CNS): 9.1 µM
- GI50 (IGROV1 ovarian): 1.49 µM
- TGI (IGROV1 ovarian): 5.8 µM
- GI50 (UO-31 renal): 1.13 µM
- TGI (UO-31 renal): 18.2 µM
- GI50 (SK-OV-3 ovarian): 6 µM
- TGI (SK-OV-3 ovarian): > 25 µM
- GI50 (NCI-H23 lung): 3.98 µM
- TGI (NCI-H23 lung): 9.4 µM
- GI50 (HCC-2998 colon): 3.44 µM
- TGI (HCC-2998 colon): 7.94 µM
- GI50 (SF-268 CNS): 3.49 µM
- TGI (SF-268 CNS): > 25 µM
- GI50 (LOX IMVI melanoma): 2.73 µM
- TGI (LOX IMVI melanoma): 6.92 µM
- GI50 (DU-145 prostate): 7.12 µM
- TGI (DU-145 prostate): > 25 µM
- GI50 (SK-MEL-2 melanoma): 5.73 µM
- TGI (SK-MEL-2 melanoma): 14.9 µM
- GI50 (SNB-19 CNS): 6.77 µM
- TGI (SNB-19 CNS): > 25 µM
- GI50 (SR leukemia): 1.86 µM
- TGI (SR leukemia): 8.79 µM
- GI50 (EKVX NSCLC): 3.35 µM
- TGI (EKVX NSCLC): 14.7 µM
- GI50 (RPMI-8226 leukemia): 1.74 µM
- TGI (RPMI-8226 leukemia): 7.67 µM
- GI50 (BT-549 breast): 3.4 µM
- TGI (BT-549 breast): 7.49 µM
- GI50 (OVCAR-5 ovarian): 5.1 µM
- TGI (OVCAR-5 ovarian): 12.7 µM
- GI50 (HOP-62 NSCLC): 3.98 µM
- TGI (HOP-62 NSCLC): 10.8 µM
- GI50 (HCT-15 colon): 2.62 µM
- TGI (HCT-15 colon): 5.92 µM
- GI50 (CAKI-1 renal): 2.44 µM
- TGI (CAKI-1 renal): 7.58 µM
- GI50 (MDA-MB-231 breast): 3.44 µM
- TGI (MDA-MB-231 breast): 7.56 µM
- GI50 (HT29 colon): 3 µM
- TGI (HT29 colon): 7.74 µM
- GI50 (KM12 colon): 5.49 µM
- TGI (KM12 colon): 18.1 µM
- GI50 (HS 578T breast): 3.4 µM
- TGI (HS 578T breast): 9.29 µM
- GI50 (SK-MEL-5 melanoma): 3.84 µM
- TGI (SK-MEL-5 melanoma): 7.29 µM
- GI50 (NCI/ADR-RES ovarian): 3.58 µM
- TGI (NCI/ADR-RES ovarian): 9.46 µM

From PubChem BioAssay (NCI)
